According to PubChem BioAssay AID2305 (GlaxoSmithKline (GSK), 2010):

Each compound was assayed on P. falciparum 3D7 growth, pLDH absorbance (assay: P. falciparum 3D7 growth inhibition, dose response, strain 3D7 (AID 2305)).

Structure (SMILES)	IC50 [nM]
Cc1cccc2[nH]c(-c3ccc(-c4cccc(CN5CCN(c6ccc(C#N)cn6)CC5)c4)s3)nc12	1420
O=S(=O)(NCCN1CCCC1)c1ccc(-c2cccc(CNCCc3cccs3)c2)cc1	930
FC(F)(F)c1ccc2nc(-c3ccc(-c4ccc(CNCCc5ccncc5)cc4)cc3)[nH]c2c1	130
CCN(CCCN1CCCCC1)c1cc(C)nc(Nc2cccc3c2CCCC3)n1	1030
CCc1ccc(CN2CCC(C(=O)Nc3ccc(-c4nc5ccccc5[nH]4)cc3)CC2)o1	610
COc1ccc(OC(C)CNC(=O)c2cc([N+](=O)[O-])ccc2-c2ccc(OC)cc2)cc1 (stereo not drawn)	1150
O=C(NCCc1ccccc1F)c1ccc(N2CCN(c3ccncc3)CC2)cn1	1080
CC[C@H]1CN2CC[C@H]1C[C@@H]2[C@H](O)c1ccnc2ccc(O)cc12	1040
O=C(Cc1cccc(Cl)c1)Nc1cccc(-c2c[nH]c3nc(Nc4cccc(OCc5ccccc5)c4)ncc23)c1	1040
CCOc1cc(C(=O)NCC2CCN(CC3CCCCC3)CC2)ccc1-c1nc2ccc(Cl)cc2[nH]1	560
CCN(CC)CCCOc1ccc(Nc2nccc(-c3c(-c4cccc(NC(=O)c5c(F)cccc5F)c4)nn4ccccc34)n2)cc1F	410
CC(C)(C)c1ccc(CNC(=O)c2cc(CNC3CCNCC3)ccc2O)cc1	710
CC(C)N(Cc1ccc(-c2ccc(C(F)(F)F)cc2)cc1)C(=O)Cn1c(CCc2cccc(F)c2F)cc(=O)c2ccc(CCCN3CCCCC3)cc21	740
CC(=NN=C(N)N)C(=O)Nc1ccc(Cl)c(Cl)c1	170
CC(C)CCNC(=O)C1Cc2c([nH]c3ccc(Br)cc23)C2(CCN(CCc3ccccc3)CC2)N1 (stereo not drawn)	690
CC1(CCCCN2CCC(Oc3ccc(F)cc3F)CC2)C(=O)Nc2ccccc21 (stereo not drawn)	760
COCCN1CCN(Cc2ccc(-c3cccc(-c4nc5ccccc5[nH]4)c3)cc2)CC1	1110
Cc1ccc(NC(=O)c2cccc(CN3CCCN(Cc4cccc(O)c4)CC3)c2)cc1C	1040
CCCCCCCc1cc(O)c2c3c(c(=O)oc2c1)CN(C)CC3	140
Cc1ccc2cc(NC(=O)c3cccc(C(=O)Nc4ccc5nc(C)ccc5c4)n3)ccc2n1	1170
O=C(NC1CCCCC1)N(Cc1cccc(-c2ccc(CNCc3ccc4c(c3)OCO4)cc2)c1)C1CCN(Cc2ccccc2)CC1	790
CCNc1cc(C(=O)N[C@@H](Cc2ccoc2)[C@H](O)CNC(C)CCCC(C)C)cc(N2CCCCS2(=O)=O)c1 (stereo partly drawn)	620
Cc1[nH]c2ccc(O)cc2c1C1CCN(CC2CCN(C(=O)/C=C/c3ccc(Cl)c(Cl)c3)CC2)CC1	1000

Structure (SMILES)	IC50 [nM]
CCCCN(CCCC)C(=NCCCCCCN=C(/N=C(/N)Nc1ccc(Cl)cc1)N(CCCC)CCCC)/N=C(/N)Nc1ccc(Cl)cc1	790
O=C(NC1CCC(N2CCCC(OCc3ccccc3)C2)CC1)c1cc2ccccc2[nH]1 (stereo not drawn)	1210
CN1CCN(CCCN(C(=O)Nc2cc(C(F)(F)F)cc(C(F)(F)F)c2)c2ccccc2Cc2ccccc2)CC1	1130
c1ccc2[nH]c(-c3ccc(-c4ccc(CNCC5CCCO5)cc4)s3)nc2c1 (stereo not drawn)	870
COCCN1CCN(Cc2cccc(-c3ccc(-c4nc5ccccc5[nH]4)cc3)c2)CC1	760
CCC(C)c1ccc(NC(=O)c2ccc(S(=O)(=O)Nc3ccc(OC)c(N4CCN(CC5CC5)CC4)c3)cc2)cc1 (stereo not drawn)	700
COc1cc2nc(NCCc3ccccc3)nc(NCc3nccs3)c2cc1OC	530
COc1ccc(CCNc2nc(N)c3cc(OC)c(OC)cc3n2)cc1	1120
Clc1ccc(-c2cc(-c3csc(NCCN4CCOCC4)n3)on2)c(Cl)c1	660
Cc1cccc(C(=O)Nc2ccnc(N3CCC(N(C)Cc4ccccc4)CC3)c2)c1	960
CCOc1ccc2c(NN=Cc3ccc(OC)c(OC)c3)cc(C)nc2c1	700
CCc1ccc(C2CCN(CCCCNC(=O)c3ccc(NC(=O)c4ccc(Cl)cc4)cc3)CC2)c(OC)c1	790
CS(=O)(=O)Cc1ccc(Nc2nccc(-c3c(-c4cccc(C(=O)Nc5c(F)cccc5F)c4)nn4ccccc34)n2)cc1	530
CN(C)c1ccc(CN2CCCCC(NC(=O)c3cc(-c4ccccc4F)cs3)C2)cc1 (stereo not drawn)	830
Nc1nc2c(c(=O)[nH]1)-c1cccc(Br)c1CC2	700
c1ccc(-c2cccnn2)cc1	910
Cc1cccc(C(=O)Nc2ccnc(N(C)C3CCN(CC(C)C)CC3)c2)c1	870
O=C(/C=C/c1cc(F)cc(C(F)(F)F)c1)N1CCC(CN2CCC(c3c[nH]c4ccccc34)CC2)CC1	760
COc1cc(NC(=O)c2sc(-c3ccc(Cl)cc3)cc2NC(=O)c2cccnc2)ccc1OCCN1CCCC1	380
O=C(Nc1ccc(C(=O)Oc2cccc3ccccc23)cc1)N[C@@H](Cc1ccc(O)cc1)C(=O)NC1CCN(Cc2ccc(O)cc2)C1 (stereo partly drawn)	910
Oc1ccccc1CNCC(O)c1cc(C(F)(F)F)cc(C(F)(F)F)c1 (stereo not drawn)	180
COc1ccc(C=NNc2ccnc3ccccc23)c2ccccc12	700
Oc1ccc(CN2CCN(CCOC(c3ccccc3)c3ccccc3)CC2)cc1Cl	810

Structure (SMILES)	IC50 [nM]
O=C(Nc1cccc(-c2ccc(-c3nc4ccc(C(F)(F)F)cc4[nH]3)cc2)c1)c1csnn1	690
CN1CCN(CC(=O)Nc2cccc(-c3cccc(-c4nc5ccccc5[nH]4)c3)c2)CC1	1290
Cc1ccc(O)cc1Nc1ccnc2ccc(C(C)(C)C)cc12	1250
FC(F)(F)c1ccc2nc(-c3ccc(-c4ccc(CNCc5cnn(-c6ccccc6)n5)cc4)cc3)[nH]c2c1	430
FC(F)(F)c1ccc(NC(=S)N2CCC(CCN3CCC(c4c[nH]c5ccccc45)CC3)CC2)cc1	890
CCOC(=O)NOC(C(=O)O)c1ccccc1 (stereo not drawn)	190
COc1ccc(-c2cc(Nc3nc(-c4cccc(Cl)c4)nc4ccccc34)ccn2)cc1	730
c1ccc(-c2csc(Nc3nc4cc5c(cc4s3)OCO5)n2)nc1	580
CCN(CCN(C)C)Cc1ccc(-c2ccc(NS(=O)(=O)c3cccc(Cl)c3)cc2)cc1	520
CC(C)(C)N1CCC(N(Cc2ccc(-c3ccc(C(F)(F)F)cc3)cc2)C(=O)Cn2c(CCc3cccc(F)c3F)cc(=O)c3cccnc32)CC1	710
CCC(C)CN1C(=O)C(c2ccccc2)(c2ccccc2)N=C1N (stereo not drawn)	710
O=C(Nc1ccccc1)Nc1cccc(-c2nn3c(OCCN4CCCC4)cccc3c2-c2ccncc2)c1	400
N#Cc1cnc2cc(-c3cnc(CNCCN4CCOCC4)s3)ccc2c1Nc1ccc(Oc2ccccc2)cc1	730
COc1ccc(Cl)cc1NC(=O)Nc1ccnc2ccccc12	680
Cc1cccc2[nH]c(-c3ccc(-c4ccc(CNCC5CCCO5)cc4)cc3)nc12 (stereo not drawn)	680
O=C(O)Cc1ccc(-c2c[nH]c3ncc(-c4cccc5ncccc45)cc23)cc1	850
CCn1c(-c2nonc2N)nc2c(-c3cccc(NC(=O)Nc4ccccc4OC)c3)ncc(OCCCN)c21	1000
O=C(/C=C/c1ccc(Cl)c(Cl)c1)N1CCC(CN2CCC(c3cn(CC(=O)N4CCCCC4)c4ccccc34)CC2)CC1	750
CC(C)(C)c1ccc2nc(-c3ccc(/C=C/C(=O)NCc4ccc(Cl)c(Cl)c4)cc3)[nH]c2c1	40
O=C(Nc1cccc(-c2nn3ccccc3c2-c2ccnc(Nc3ccccc3)n2)c1)c1cc(F)ccc1F	950
Cc1ccccc1C1CCN(C2CCC(NC(=O)c3cc4cc(Cl)ccc4o3)CC2)CC1 (stereo not drawn)	1200
Clc1ccc(CNc2nc(NCCc3cnc[nH]3)nc(N3CCCC4CCCCC43)n2)cc1 (stereo not drawn)	590
